{
  "source": "paper PMC6410202",
  "about": "“Dual Action of the PN159/KLAL/MAP Peptide: Increase of Drug Penetration across Caco-2 Intestinal Barrier Model by Modulation of Tight Junctions and Plasma Membrane Permeability” (Pharmaceutics, 2019)",
  "key": {"[1]": {"tested_on": "Caco-2 cells", "assay": "Impedance measurement (RTCA), Caco-2 cells", "format": "cell-based", "details": "PN159 1-100 μM, 1-h or one-day treatment", "description": "Kinetics of epithelial cell reaction to PN159 peptide treatment was monitored by impedance measurement at 10 kHz (RTCA-SP instrument, ACEA Biosciences, San Diego, CA, USA). Impedance measurement is non-invasive, label-free and real time, and linearly correlates with adherence, growth, number and viability of cells. For background measurements 50 μL cell culture medium was added to the wells, then cells were seeded at a density of 6 × 10^3 cells/well to the coated 96-well plates with integrated gold electrodes (E-plate 96, ACEA Biosciences). Cells were cultured for 5–7 days in a CO2 incubator at 37 °C and monitored every 10 min until the end of experiments. Cells were treated with PN159 peptide solutions at 1, 3, 10, 30 and 100 μM concentrations at the beginning of the plateau phase of growth and the effects were followed for 1-h or 24 h. To measure cell recovery, peptide solutions were changed to culture medium and the impedance was monitored for one week. Culture medium was changed every 2 days. Caco-2 cells were also treated with the three selected CPPs, Pep-1, R8 and φ-peptide, at 100 μM concentrations at the beginning of the plateau phase of cell growth for 24-h. Triton X-100 detergent (1 mg/mL) was used as a reference compound to induce cell death. Cell index was defined as Rn-Rb at each time point of measurement, where Rn is the cell-electrode impedance of the well when it contains cells and Rb is the background impedance of the well with the medium alone."}, "[2]": {"tested_on": "claudin-5", "set-up": "method as in PMID 26869428", "details": "affinity measurements; cited from earlier work"}, "[3]": {"tested_on": "Caco-2 cells", "assay": "Transmission electron microscopy of tight junctions", "format": "cell-based, human", "details": "30 min", "description": "Cells grown on culture inserts were treated with 10 μM PN159 peptide for 30 min and fixed immediately after treatment or after a 1-day recovery. Cells were briefly washed with phosphate-buffered saline (PBS) and fixed with 3% paraformaldehyde containing 0.5% glutaraldehyde in cacodylate buffer (pH 7.4) for 30 min at 4 °C. After washing with the buffer several times, cells were postfixed in 1% OsO4 for 20 min. Following a rinse with distilled water, the cells were block stained with 1% uranyl acetate in 50% ethanol for 20 min, dehydrated in graded ethanol and after the last step of dehydration inserts were placed in the 1:1 mixture of ethanol and Taab 812 (Taab; Aldermaston, Berks, UK) for 10 min at 30°C. Finally, the membranes of the culture inserts with the cells were removed from their support and embedded in Taab 812. Polymerization was performed overnight at 60°C. Ultrathin sections were cut perpendicularly for the membrane using a Leica EM UC6 ultramicrotome (Nussloch, Germany) and picked up on formvar-coated single-slot copper grids. […] Altogether, 105 non-overlapping images from the 3 groups at the same magnification were analyzed for the presence or absence of tight junctions (control group n = 28; PN159 group n = 42; recovery group n = 35)."}, "[4]": {"tested_on": "Caco-2 cell layers", "assay": "Transepithelial electrical resistance (TEER) of Caco-2 cell layers", "format": "cell-based, human", "details": "for TEER, % of the control value: PN159 10 μM", "description": "For the measurement of barrier integrity Caco-2 cells were seeded onto culture inserts (Transwell 3460, polyester membrane, 0.4 µm pore size, Corning Costar) and cultured for three weeks. Transepithelial electrical resistance (TEER) reflects the tightness of the intercellular junctions. […]. Resistance of cell-free inserts (130 Ω × cm^2) was subtracted from the measured values. TEER values were measured before and right after permeability experiments). TEER values indicated the integrity and paracellular permeability of cell layers for ions. The TEER of Caco-2 monolayers was 1302 ± 49 Ω × cm^2 (mean ± SD; n = 46) after 3 weeks culturing. For the recovery experiment, after changing the 10 μM peptide solutions to culture medium, TEER was monitored for one day."}, "[5]": {"assay": "Circular dichroism spectroscopy of the peptide", "format": "physicochemical", "details": "CD", "description": "Far-UV circular dichroism (CD) spectra of the peptides were recorded at 25°C temperature on a J-810 spectropolarimeter (JASCO International Co. Ltd., Tokyo, Japan). The CD spectra were measured between 260 nm and 185 nm with an optical pathlength of 1 mm, at a peptide concentration of 0.1 mg/mL in Milli-Q water diluted directly from powder. The bandwidth was 2 nm and data pitch 0.5 nm, the scan speed was set to 100 nm/min and the integration time was 1 sec. Ten spectra were accumulated and plotted. The data were analyzed by CDSSTR method. To test the thermostability of the peptide structure the CD spectra were recorded between 25 °C and 55 °C temperature with a ramp rate of 5 °C/min on a JASCO J-810 spectropolarimeter by using a Peltier sample holder. The CD spectra were measured immediately between 260 and 185 nm with an optical pathlength of 1 mm, the peptide concentration was 0.1 mg/mL in Milli-Q water. The bandwidth was 2 nm and data pitch 1 nm, the scan speed was set to 100 nm/min, and the integration time was 1 sec. Five spectra were accumulated and plotted."}},
  "data": [
    {"compound": "CC(C)C[C@H](NC(=O)[C@H](C)NC(=O)[C@H](CCCCN)NC(=O)[C@H](CC(C)C)NC(=O)[C@H](C)NC(=O)[C@H](CC(C)C)NC(=O)[C@H](CCCCN)NC(=O)[C@H](CC(C)C)NC(=O)[C@H](C)NC(=O)[C@H](CC(C)C)NC(=O)[C@@H](N)CCCCN)C(=O)N[C@@H](CCCCN)C(=O)N[C@@H](C)C(=O)N[C@@H](C)C(=O)N[C@@H](CC(C)C)C(=O)N[C@@H](CCCCN)C(=O)N[C@@H](CC(C)C)C(=O)N[C@@H](C)C(N)=O", "note": "[PN159]", "values": [
      {"measurement": "Cell impedance (normalized cell index)", "setting": "[1]", "value": "only the two highest peptide concentrations decreased the cell impedance"},
      {"measurement": "Binding", "setting": "[2]", "value": "in the micromolar range"},
      {"measurement": "Ultrastructure of epithelial junctions", "setting": "[3]; 1-day recovery after PN159 10 μM", "value": "became similar to control cells"},
      {"measurement": "Tight junctions by electron microscopy", "setting": "[3]; PN159 10 μM", "value": "no junctions were observed"},
      {"measurement": "TEER recovery", "setting": "[4]; 20 h after removal of PN159 (10 μM, 30 min)", "value": "complete recovery"},
      {"measurement": "TEER, % of the control value", "setting": "[4]; 1-min treatment", "value": 42, "unit": "%"},
      {"measurement": "TEER, % of the control value", "setting": "[4]; 5 min", "value": 16, "unit": "%"},
      {"measurement": "TEER, % of the control value", "setting": "[4]; 15 min", "value": 2.7, "unit": "%"},
      {"measurement": "TEER, % of the control value", "setting": "[4]; 30 min", "value": 1.4, "unit": "%"},
      {"measurement": "Decrease in TEER", "setting": "[4]; PN159 10 and 30 μM, 1-h treatment", "value": "80–90%"},
      {"measurement": "Resistance of epithelial cell layers (TEER)", "setting": "[4]; all tested concentrations (1, 3, 10, 30 μM), 1-h treatment", "value": "significantly decreased the resistance"},
      {"measurement": "Secondary structure, turns", "setting": "[5]; 25 °C, 0.1 mg/mL in water", "value": 24, "unit": "%"},
      {"measurement": "Secondary structure, unordered structure", "setting": "[5]; 25 °C, 0.1 mg/mL in water", "value": 34, "unit": "%"},
      {"measurement": "Secondary structure, α-helix", "setting": "[5]; 25 °C, 0.1 mg/mL in water", "value": 11, "unit": "%"},
      {"measurement": "Secondary structure, β-sheet", "setting": "[5]; 25 °C, 0.1 mg/mL in water", "value": 31, "unit": "%"},
      {"measurement": "Thermostability of secondary structure", "setting": "[5]; between 25 and 55 °C", "value": "stable"}
    ]}
  ]
}
